Holding throughout (type): cell-based
Series [1] can be described thus: WST-1 cell proliferation (cytotoxicity) assay, KB-31. As to conditions: human, WST-1, incubated for 5 days. The protocol:
(§1) The cytotoxicity was determined using WST-1 cell proliferation assays. Targeting cell lines are L929 mouse fibroblasts, KB-31 epidermoid carcinoma, and MCF-7 breast cancer cell lines which were incubated for 5 days with the test substances. The acute toxicity was determined using the FS4-LTM conditional immortalization human fibroblasts cell line which was incubated for 24 hours with the test compounds.

For series [2], the system named is KB-31 epidermoid carcinoma cells. The series is described as above. To be noted: WST-1, incubated for 5 days. The protocol:
as §1
For orientation: Tetrazolium dyes change colour on reduction, which living cells bring about.

Series [3] can be described thus: WST-1 cell proliferation (cytotoxicity) assay, MCF-7. As to conditions: human, MCF-7 breast cancer cell line, WST-1, incubated for 5 days. The protocol: as §1
The test system of series [4] is MCF-7 breast cancer cell line. The series is described as above. To be noted: WST-1, incubated for 5 days. The protocol:
as §1

Series [5] is described as follows: Acute toxicity, WST-1 assay, FS4-LTM. As to conditions: human, FS4-LTM conditionally immortalized fibroblasts, FS4-LTM conditional immortalization human fibroblasts, incubated for 24 hours; read-out: Cytotoxicity (acute toxicity) IC50 FS4-LTM. The protocol: as §1
Series [6] has as its system FS4-LTM conditional immortalization human fibroblasts. Kind of series: Acute toxicity, WST-1 assay, FS4-LTM. As to conditions: incubated for 24 hours, read-out: Cytotoxicity (acute toxicity) IC50 FS4-LTM. The protocol:
as §1

A short description of series [7]: WST-1 cell proliferation (cytotoxicity) assay, L929. As to conditions: L929 mouse fibroblasts, WST-1, incubated for 5 days. The protocol: as §1
Setting [8] is: KB-31 epidermoid carcinoma cells.

One may read the IC50 as the concentration needed to halve the response being measured.

The compound `COC1=C(Br)[C@H](O)[C@@]2(C=C1Br)CC(C(=O)NCCCOc1ccc([C@H](O)CNC(=O)C3=NO[C@]4(C=C(Br)C(OC)=C(Br)[C@@H]4O)C3)cc1Br)=NO2` [Compound 1, 14-debromo-11-deoxyfistularin-3] came in with an IC50 at 5 days in series [1] (setting [8]) of 69 µM. In addition, inhibition in series [2] was half-maximal at 68.8 µM (IC50).

For `COC1=C(Br)[C@H](O)[C@@]2(C=C1Br)CC(C(=O)NC[C@@H](O)c1cc(Br)c(OCCCNC(C)=O)c(Br)c1)=NO2` [Compound 2, aplysinin A], the IC50 at 5 days came to 78 µM in series [3] (MCF-7 breast cancer cells) and 26 µM in series [1] (setting [8]). Moreover, the values for the IC50 in series [4], in series [6] and in series [2] were 77.5 µM, 32.2 µM and 25.8 µM, respectively. The IC50 at 24 hours in series [5] stood at 32 µM.

As to `COC1=C(Br)[C@H](O)[C@@]2(C=C1Br)CC(C(=O)NCCCOc1ccc(CCN)cc1Br)=NO2` [Compound 4, 14-debromoaraplysillin I], the IC50 at 5 days in series [3] (MCF-7 breast cancer cells) was 78.6 µM; in series [7], 94.3 µM.

In the case of `COC1=C(Br)[C@H](O)[C@@]2(C=C1Br)CC(C(=O)NCC(O)COc1c(Br)cc(C(O)CNC(=O)C3=NO[C@]4(C=C(Br)C(OC)=C(Br)[C@@H]4O)C3)cc1Br)=NO2` (stereo partly shown) [Compound 5, fistularin-3], in series [3], the IC50 at 5 days came to 207 µM.

Consider `COC1=C(Br)[C@H](O)[C@@]2(C=C1Br)CC(C(=O)NCCCOc1c(Br)cc(CCNC(=O)C3=NO[C@]4(C=C(Br)C(OC)=C(Br)[C@@H]4O)C3)cc1Br)=NO2` [Compound 6, 11,19-dideoxyfistularin-3], for which the IC50 at 5 days in series [7] was found to be 118 µM; in series [1] (KB-31 epidermoid carcinoma) it was 88.2 µM.

In the case of `COC1=C(Br)[C@H](O)[C@@]2(C=C1Br)CC(C(=O)NCCc1cc(Br)c(OCC(O)CNC(=O)C3=NO[C@]4(C=C(Br)C(OC)=C(Br)[C@@H]4O)C3)c(Br)c1)=NO2` (stereo partly shown) [Compound 7, 19-deoxyfistularin-3], the midpoint of inhibition in series [3], the IC50 at 5 days, lay at 60 µM.

In series [3] (MCF-7 breast cancer cells), `COC1=C(Br)[C@H](O)[C@@]2(C=C1Br)CC(C(=O)NCCCOc1c(Br)cc(C(O)CNC(=O)C3=NO[C@]4(C=C(Br)C(OC)=C(Br)[C@@H]4O)C3)cc1Br)=NO2` (stereo partly shown) [Compound 8, 11-deoxyfistularin-3] yielded an IC50 at 5 days of 47.2 µM. The IC50 at 24 hours in series [5] was 87.3 µM.

For the compound `COC1=C(Br)[C@H](O)[C@@]2(C=C1Br)CC(C(=O)NCCc1cc(Br)c(OCCCN)c(Br)c1)=NO2` [Compound 10, hexadellin B], half-maximal inhibition in series [3] (MCF-7 breast cancer cells) (IC50 at 5 days) was put at 90.6 µM. The IC50 at 24 hours in series [5] is 73.4 µM.

As for `CNc1nc(CCCNC(=O)C2=NO[C@]3(C=C(Br)C(OC)=C(Br)[C@@H]3O)C2)c[nH]1` [Compound 15, N-methyl-aerophobin-2], the IC50 at 5 days in series [7] was 55.9 µM; in series [1] (setting [8]) it was 48.9 µM.

Regarding `COC1=C(Br)[C@@H]2OC(=O)C[C@]2(O)C=C1Br` [Compound 16, aeroplysinin-2], the midpoint of inhibition in series [3], the IC50 at 5 days, lay at 96.3 µM.

As to `COC(=O)Cc1cc(Br)c(O)c(Br)c1O` [Compound 17, subereaphenol B], in series [3] (MCF-7 breast cancer cells), the half-maximal inhibitory concentration (IC50) at 5 days amounted to 64.8 µM.

Source of the values: PMC4685874, “Bromotyrosine-derived alkaloids from the Caribbean sponge Aplysina lacunosa” (Beilstein Journal of Organic Chemistry, 2015).
